Laboratory results: ChEMBL document CHEMBL1151247, “Quinazolin-4-one derivatives from Streptomyces isolates” (J Nat Prod, 2004)
Activity calls are given as the source filed them.

What was measured:
Format in all cases: functional, organism-based
Chlorella vulgaris = test: Antialgal activity against Chlorella vulgaris
Chlorella sorokiniana = test: Antialgal activity against Chlorella sorokiniana
Desmodesmus subspicatus = test: Antialgal activity against Scenedesmus subspicatus
Rhizomucor miehei = test: Antifungal activity against Mucor miehei
Candida albicans = test: Antifungal activity against Candida albicans
Staphylococcus aureus = test: Antibacterial activity against Staphylococcus aureus
Bacillus subtilis = test: Antibacterial activity against Bacillus subtilis
Escherichia coli = test: Antibacterial activity against Escherichia coli
[1] = system: Streptomyces viridochromogenes; test: Antibacterial activity against Streptomyces viridochromogenes

Measured: Activity

C[C@@H](O)[C@@]1(C)NC(=O)c2ccccc2N1 (relative stereo)
inactive: all assays above

C[C@@H](O)[C@]1(C)NC(=O)c2ccccc2N1 (relative stereo)
inactive: all assays above
